# Tests used:
# MOLM-16 cells [1] = assay: CellTiter-Glo cell growth; type: cell-based; conditions: Homo sapiens, MOLM16; MOLM-16, CellTiter Glo
# Method: (§1) (a–d) AML cells were treated with STING agonists and standard of care cytarabine, and cell viability was measured by CellTiter Glo in (a) THP1-STING-R232, (b) THP1-STING-KO, (c) MV-4-11 and (d) MOLM-16. (e) MV-4-11, MOLM-16 and THP1-STING-KO cells were stimulated with 1 µM of SHR1032 for the indicated time points. The amount of pTBK1, total TBK1, pSTING, total STING and α-tubulin was measured by Western blot. pSTING phosphorylated STING. THP1 reporter cells were treated for 24 h with a total of 100 k cells and 150 ul media in each well a 96-well plate. Following the incubation, 20 µl of supernatant was transferred to an opaque 96 well ½ area plate and incubated for 30 s with 50 µl of QUANTI-Luc substrate (InvivoGen) per manufacturer’s instructions. Luminescence signal was measured using Tecan infinite M1000. EC50 values were calculated using non-linear regression analysis of GraphPad Prism. Cell growth was monitored by CellTiter-Glo Luminescent Cell Viability Assay (Promega) per manufacture’s protocol. GI50 values were calculated using non-linear regression analysis of GraphPad Prism. Cell lysates for western blotting were made in RIPA buffer (Sigma) with Halt Protease and Phosphatase Inhibitors (Thermo Scientific). Antibodies against pSTING, TBK1, pTBK1 and tubulin were purchased from Cell Signaling Technologies, and anti-STING was purchased from Protein Tech.
# MV4-11 cells [2] = assay: CellTiter-Glo cell growth; type: cell-based; conditions: Homo sapiens; MV4-11, CellTiter Glo
# Method: as §1
# human PBMCs = assay: IFNβ ELISA; type: cell-based; conditions: 5 h, vs ADU-S100
# Method: (§2) Figure 2 SHR1032 specifically and potently activates STING signaling pathway. IRF luciferase reporter assays in (a) THP1-STING-R232, THP1-STING-H232, THP1-STING-HAQ, and THP1-STING-KO cells. Cells were stimulated for 24 h with the indicated STING compounds and assessed for luciferase activity. IFNβ production and activation of cGAS-STING signaling pathway in (b) human THP1-STING-R232, human PBMCs from a donor homozygous for the R232 variant, cynomolgus PBMC, and mouse RAW164.7 macrophage cells were treated with STING agonists for 5 h. IFNβ in media was quantified by human or mouse ELISA kits respectively. (c) THP1-STING-R232 cells and mouse RAW164.7 macrophage cells were stimulated with 40 µM of ADU-S100 or 10 µM of SHR1032 for the indicated time points. The amount of pTBK1, total TBK1, STING and α-tubulin was measured by western blotting.
# (§3) Human and Cynomolgous PBMC’s were thawed and spun down in Lymphocyte media (ZENBIO) and resuspended in media to 1.5 x 10^6 cells/ml density. […] Human and monkey IFN-β protein concentration was measured using human IFN-β Quantikine ELISA Kits (R&D Systems) per manufacture’s protocol. Mouse IFN-β was measured using mouse IFN-β Quantikine ELISA Kits (R&D Systems) per manufacture’s protocol. Mouse TNFα, IFN-β and IL-6 in the tumor lysates and plasma was measured by Quantikine ELISA Kits (R&D Systems) per manufacture’s protocol.
# [3] = system: mouse RAW164.7 macrophage cells; assay: IFNβ ELISA; type: cell-based; conditions: 5 h, vs ADU-S100
# Method: as §2, §3
# MV4-11 cells [4] = assay: RNA-seq differentially expressed genes; type: cell-based, human; conditions: MV4-11, 1 µM, 4 h
# Method: (§4) Figure 5 Cell apoptosis induced by SHR1032 in AML cell lines is independent of type I interferon. (a–d) RNA-Seq analysis of THP1-STING-R232, THP1-STING-KO and MV4-11 AML cells treated with 1 µM of SHR1032 for 4 h. […] (d) ANNEXIN V staining analysis with flow cytometry in MV4-11, MOLM-16, THP1-STING-WT and THP1-STING-KO cells. (e) Cell viability analysis by CellTiter Glo in THP1-IRFAR2-WT or -KO cells.
# (§5) RNA was extracted from cells using RNeasy Plus Mini Kit (Qiagen). Library preparation with NEBNext Ultra II with PolyA selection, sequencing with NovaSeq and data analysis was performed by Admera Health, New Jersey. The De-Seq2 (version 1.14.1) was used to do the differential analysis. Gene expression levels were quantified as Fragments Per Kilobase Million (FPKM). Gene expression with FPKM value ≥ 0.5 were selected and Log2-transformed for the Differential Gene Expression (DEGs) analysis using iDEP (http://bioinformatics.sdstate.edu/idep/). DEGs were defined by p < 0.05 within each indicated paired-comparison and then used for Gene Ontology Analysis and heatmap generation. The Gene Ontology Analysis was done using Enrichr. The heatmap was created using R package gplots (version 3.1.1), function heatmap.2.
# THP1-STING-WT cells = assay: RNA-seq differentially expressed genes; type: cell-based, human; conditions: 1 µM, 4 h
# Method: as §4, §5
# MOLM-16 cells [5] = assay: Western blot of TBK1 and STING phosphorylation; type: cell-based, human; conditions: MOLM-16, 1 µM
# Method: as §1
# MV4-11 cells [6] = assay: Western blot of TBK1 and STING phosphorylation; type: cell-based, human; conditions: MV4-11, 1 µM
# Method: as §1
# THP1-STING-KO cells = assay: Western blot of TBK1 and STING phosphorylation; type: cell-based, human; conditions: 1 µM
# Method: as §1
structure (smiles),measurement,setting,value
CCn1nc(C)cc1C(=O)Nc1nc2cc(C(N)=O)cc(OC)c2n1CCC[C@H]1COc2cc(C(N)=O)cc3nc(NC(=O)c4cc(C)nn4CC)n1c23 [SHR1032],GI50,MOLM-16 cells [1],2.6 nM
same,GI50,MV4-11 cells [2],1 nM
same,human IFNβ production,human PBMCs,much greater amount of human IFNβ than ADU-S100
same,mouse IFNβ production,[3],"lower than that with that of ADU-S100, but still detectable"
same,Genes differentially expressed: Down-expressed,MV4-11 cells [4],216
same,Genes differentially expressed: Up-expressed,MV4-11 cells [4],324
same,Genes differentially expressed: Down-expressed,THP1-STING-WT cells,73
same,Genes differentially expressed: Up-expressed,THP1-STING-WT cells,224
same,TBK1 and STING phosphorylation,MOLM-16 cells [5],induced TBK1 and STING phosphorylation
same,TBK1 and STING phosphorylation,MV4-11 cells [6],induced TBK1 and STING phosphorylation
same,TBK1 and STING phosphorylation,THP1-STING-KO cells,not in THP1-STING-KO cells

# Source: PMC9122897, “SHR1032, a novel STING agonist, stimulates anti-tumor immunity and directly induces AML apoptosis” (Scientific Reports, 2022)
